Data from US12139477B2, “Compounds, salts thereof and methods for treatment of diseases” (ACADIA PHARMACEUTICALS INC., priority 2017, dated 2024).

Molecular target: 5HT2A (Homo sapiens, UniProt P28223)
Assay: Receptor Selection and Amplification (R-SAT) functional assay
Type: cell-based
Parameters: expressed in transfected cells; host or cells: NIH3T3 cells, pSI mammalian expression vector
Conditions: NIH3T3 cells, Ki from IC50 by Cheng and Prussoff; for Ki: read-out: 5-HT2a (pKi) (R-SAT) (converted)
Text: Receptor Selection and Amplification (R-SAT) Assays. […] The IC50 determined in the RSAT assay was converted into a Ki value using the method of Cheng and Prussoff, Biochem Pharmacol., 1973 Dec. 1; 22(23):3099-108. pKi is the negative of the log(Ki).

Sequence of 5HT2A (P28223 whole entry): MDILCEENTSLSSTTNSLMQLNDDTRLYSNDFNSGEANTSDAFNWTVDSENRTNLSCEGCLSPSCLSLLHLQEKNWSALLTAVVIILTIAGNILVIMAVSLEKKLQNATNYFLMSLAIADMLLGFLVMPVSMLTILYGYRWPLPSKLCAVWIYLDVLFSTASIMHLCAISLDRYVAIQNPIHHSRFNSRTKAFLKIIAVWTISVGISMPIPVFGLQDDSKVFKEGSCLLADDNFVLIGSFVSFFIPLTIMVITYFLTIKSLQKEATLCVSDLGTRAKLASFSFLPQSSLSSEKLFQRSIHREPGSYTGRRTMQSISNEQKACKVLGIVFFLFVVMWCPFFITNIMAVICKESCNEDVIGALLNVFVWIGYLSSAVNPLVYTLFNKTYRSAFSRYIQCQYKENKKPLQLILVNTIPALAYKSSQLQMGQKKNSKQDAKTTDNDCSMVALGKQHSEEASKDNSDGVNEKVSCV

Row | SMILES | Ki | 5-HT2a (pKi) (R-SAT)
1 | CC(C)COc1ccc(CNC(=O)N(Cc2ccc(F)cc2OC(F)F)C2CCN(C)CC2)cc1 [Example 101, 1-{[2-(difluoromethoxy)-4-fluorophenyl]methyl}-1-(1-methylpiperidin-4-yl)-3-{[4-(2-methylpropoxy)phenyl]methyl}urea; Trifluoroacetic Acid] | 79.4 nM | –
2 | CC(C)COc1ccc(CNC(=O)N(Cc2ccc(F)cc2OC(F)(F)F)C2CCN(C)CC2)cc1 [Example 103, 1-{[4-fluoro-2-(trifluoromethoxy)phenyl]methyl}-1-(1-methylpiperidin-4-yl)-3-{[4-(2-methylpropoxy)phenyl]methyl}urea; Trifluoroacetic Acid] | 251 nM | –
3 | Cc1cc(F)ccc1CN(C(=O)NCc1ccc(OCC(C)C)cc1)C1CCN(C)CC1 [Example 104, 1-[(4-fluoro-2-methylphenyl)methyl]-1-(1-methylpiperidin-4-yl)-3-{[4-(2-methylpropoxy)phenyl]methyl}urea; Trifluoroacetic Acid] | 39.8 nM | –
4 | COc1ccc(CN(C(=O)NCc2ccc(OCC(C)C)cc2)C2CCN(C)CC2)c(Cl)c1 [Example 105, 1-[(2-chloro-4-methoxyphenyl)methyl]-1-(1-methylpiperidin-4-yl)-3-{[4-(2-methylpropoxy)phenyl]methyl}urea; Trifluoroacetic Acid] | 100 nM | –
5 | CC(C)Oc1ccc(CNC(=O)N(Cc2ccc(Cl)cc2Cl)C2CCN(C)CC2)cc1 [Example 106, 1-[(2,4-dichlorophenyl)methyl]-1-(1-methylpiperidin-4-yl)-3-{[4-(propan-2-yloxy)phenyl]methyl}urea; Trifluoroacetic Acid] | 50.1 nM | –
6 | CC(C)Oc1ccc(CNC(=O)N(Cc2ccc(Cl)cc2Cl)C2CCNCC2)cc1 [Example 108, 1-[(2,4-dichlorophenyl)methyl]-1-(piperidin-4-yl)-3-{[4-(propan-2-yloxy)phenyl]methyl}urea; Trifluoroacetic Acid] | 79.4 nM | –
7 | CC(C)COc1ccc(CNC(=O)N(Cc2ccc(F)cc2Cl)C2CCNCC2)cc1 [Example 109, 1-[(2-chloro-4-fluorophenyl)methyl]-3-{[4-(2-methylpropoxy)phenyl]methyl}-1-(piperidin-4-yl)urea; Trifluoroacetic Acid] | 25.1 nM | –
8 | CC(C)Oc1ccc(CNC(=O)N(Cc2ccc(F)cc2Cl)C2CCNCC2)cc1 [Example 110, 1-[(2-chloro-4-fluorophenyl)methyl]-1-(piperidin-4-yl)-3-{[4-(propan-2-yloxy)phenyl]methyl}urea; Trifluoroacetic Acid] | 25.1 nM | –
9 | CC(C)COc1ccc(CNC(=O)N(Cc2ccc(Cl)cc2Cl)C2CCNCC2)cc1 [Example 111, 1-[(2,4-dichlorophenyl)methyl]-3-{[4-(2-methylpropoxy)phenyl]methyl}-1-(piperidin-4-yl)urea; Trifluoroacetic Acid] | 79.4 nM | –
10 | Cc1ccc(F)c(CN(C(=O)NCc2ccc(OC(C)C)cc2)C2CCN(C)CC2)c1F [Example 112, 1-[(2,6-difluoro-3-methylphenyl)methyl]-1-(1-methylpiperidin-4-yl)-3-{[4-(propan-2-yloxy)phenyl]methyl}urea; Trifluoroacetic Acid] | 39.8 nM | –
11 | CC(C)Oc1ccc(CNC(=O)N(Cc2c(F)ccc(F)c2F)C2CCN(C)CC2)cc1 [Example 113, 1-(1-methylpiperidin-4-yl)-3-{[4-(propan-2-yloxy)phenyl]methyl}-1-[(2,3,6-trifluorophenyl)methyl]urea; Trifluoroacetic Acid] | 126 nM | –
12 | Cc1c(F)ccc(CN(C(=O)NCc2ccc(OC(C)C)cc2)C2CCN(C)CC2)c1F [Example 114, 1-[(2,4-difluoro-3-methylphenyl)methyl]-1-(1-methylpiperidin-4-yl)-3-{[4-(propan-2-yloxy)phenyl]methyl}urea; Trifluoroacetic Acid] | 6.31 nM | –
13 | Cc1cc(OC(C)C)ccc1CNC(=O)N(Cc1ccc(F)cc1F)C1CCN(C)CC1 [Example 116, 1-[(2,4-difluorophenyl)methyl]-3-{[2-methyl-4-(propan-2-yloxy)phenyl]methyl}-1-(1-methylpiperidin-4-yl)urea; Hemitartrate] | 63.1 nM | –
14 | COc1ccc(CNC(=O)N(Cc2ccc(F)cc2F)C2CCN(C)CC2)cc1F [Example 118, 1-[(2,4-difluorophenyl)methyl]-3-[(3-fluoro-4-methoxyphenyl)methyl]-1-(1-methylpiperidin-4-yl)urea] | 10 nM | –
15 | CN1CCC(N(Cc2ccc(F)cc2F)C(=O)NCc2ccc(O)cc2F)CC1 [Example 119, 1-[(2,4-difluorophenyl)methyl]-3-[(2-fluoro-4-hydroxyphenyl)methyl]-1-(1-methylpiperidin-4-yl)urea] | 63.1 nM | –
16 | CN1CCC(N(Cc2ccc(F)cc2F)C(=O)NCc2ccc(Oc3ccccc3)cc2)CC1 [Example 120, 3-[(2,4-difluorophenyl)methyl]-3-(1-methylpiperidin-4-yl)-1-[(4-phenoxyphenyl)methyl]urea] | 7.94 nM | –
17 | COc1ccc(CN(C(=O)NCc2ccc(OCC(C)C)cc2)C2CCN(C)CC2)c(C(F)(F)F)c1 [Example 121, 3-{[4-methoxy-2-(trifluoromethyl)phenyl]methyl}-3-(1-methylpiperidin-4-yl)-1-{[4-(2-methylpropoxy)phenyl]methyl}urea] | 126 nM | –
18 | COc1ccc(CN(C(=O)NCc2ccc(OC(C)C)cc2)C2CCN(C)CC2)c(F)c1 [Example 122, 1-[(2-fluoro-4-methoxyphenyl)methyl]-1-(1-methylpiperidin-4-yl)-3-{[4-(propan-2-yloxy)phenyl]methyl}urea; Trifluoroacetic Acid] | 7.94 nM | –
19 | CCCCOc1ccc(CNC(=O)N(Cc2ccc(F)cc2F)C2CCNCC2)cc1.CCCCOc1ccc(CNC(=O)N(Cc2ccc(F)cc2F)C2CCNCC2)cc1.O=C(O)C(O)C(O)C(=O)O [Example 123, 3-[(4-butoxyphenyl)methyl]-1-[(2,4-difluorophenyl)methyl]-1-(piperidin-4-yl)urea; Hemitartrate] | – | 7.8
20 | CCCCOc1ccc(CNC(=O)N(Cc2ccc(F)cc2F)C2CCN(C)CC2)cc1 [Example 124, 3-[(4-butoxyphenyl)methyl]-1-[(2,4-difluorophenyl)methyl]-1-(1-methylpiperidin-4-yl)urea] | 10 nM | –
21 | COc1ccc(CNC(=O)N(Cc2ccc(F)cc2F)C2CCNCC2)cc1.COc1ccc(CNC(=O)N(Cc2ccc(F)cc2F)C2CCNCC2)cc1.O=C(O)C(O)C(O)C(=O)O [Example 126, 1-[(2,4-difluorophenyl)methyl]-3-[(4-methoxyphenyl)methyl]-1-(piperidin-4-yl)urea; Hemitartrate] | – | 8.1
22 | CCOc1ccc(CNC(=O)N(Cc2ccc(F)cc2F)C2CCNCC2)cc1.CCOc1ccc(CNC(=O)N(Cc2ccc(F)cc2F)C2CCNCC2)cc1.O=C(O)C(O)C(O)C(=O)O [Example 127, 3-[(2,4-difluorophenyl)methyl]-1-[(4-ethoxyphenyl)methyl]-3-(piperidin-4-yl)urea; Hemitartrate] | – | 8.2
23 | CN1CCC(N(Cc2ccc(F)cc2F)C(=O)NCc2ccc3c(c2)OCO3)CC1 [Example 128, 3-[(2H-1,3-benzodioxol-5-yl)methyl]-1-[(2,4-difluorophenyl)methyl]-1-(1-methylpiperidin-4-yl)urea] | 7.94 nM | –
24 | CC(C)COc1ccc(CNC(=O)N(Cc2cccc(F)c2F)C2CCN(C)CC2)cc1 [Example 129, 1-[(2,3-difluorophenyl)methyl]-1-(1-methylpiperidin-4-yl)-3-{[4-(2-methylpropoxy)phenyl]methyl}urea; Trifluoroacetic Acid] | 50.1 nM | –
